# Laboratory results published in the supplement of paper PMC5412046.
# Counter-ions that a name gives are not always drawn.
# Tested on: SB.msgc-1
# Experiment: AC50 for growth inhibition (viability) (log10 M); higher = less potent
# Details: SB.msgc-1 (sporadic gastric cancer)
# Procedure, shortened: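 Log half-maximal activity concentration reflects viability of patient-derived gastric cancer cells, hereditary or sporadic, normalised to DMSO and fitted with four parameters, with only high-quality curve classes retained. Wells of a 1536 plate held 500 cells and received compound by pintool at 11 threefold dilutions from a final 46 μM. Luminescence from CellTiter-Glo was read on a ViewLux at 48 h.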
smiles,measurement,value
C[C@H](c1ccc(F)cc1CCCC(=O)O)N(c1cc(F)ccc1F)[S+](=O)([O-])c1ccc(Cl)cc1,AC50 for growth inhibition (log10 M),-4.78
Cc1nc(NC(=O)N2CCC[C@H]2C(N)=O)sc1-c1ccnc(C(C)(C)C(F)(F)F)c1 [BYL-719],AC50 for growth inhibition (log10 M),-4.88
CCOc1ccc(Nc2nc(-c3c(C)nc4ccccn34)cs2)cc1 [JK 184],AC50 for growth inhibition (log10 M),-6.43
COC1=CC=CC(=C1N)\C2=C\C(=O)C3=C(O2)C=CC=C3,AC50 for growth inhibition (log10 M),-4.68
Cc1ccnc(N[S+](=O)([O-])c2ccc(NC(=O)Nc3ccc([S+](=O)([O-])Nc4nccc(C)n4)cc3)cc2)n1,AC50 for growth inhibition (log10 M),-4.68
COc1ccc(COc2cc3oc(=O)c4cc(C(C)O)ccc4c3cc2OC)cc1 (stereo not given),AC50 for growth inhibition (log10 M),-4.63
CC[C@]12\C=C/CN3CC[C@]4([C@@H](N(C)C5=CC(=C(C=C45)[C@]6(C[C@H]7C[C@H](CN(C7)CC8=C6[NH]C9=C8C=CC=C9)C(C)(F)F)C(=O)OC)OC)[C@](O)([C@@H]1OC(C)=O)C(=O)OC)[C@H]23 [Vinflunine],AC50 for growth inhibition (log10 M),-7.83
Cn1cnc2c(F)c(Nc3ccc(Br)cc3F)c(C(=O)NOCCO)cc21 [ARRY-162],AC50 for growth inhibition (log10 M),-6.63
Clc1ccccc1C(c1ccccc1)(c1ccccc1)n1cccn1 [TRAM-34],AC50 for growth inhibition (log10 M),-5.88
O=[S+]([O-])(/N=C/c1c(O)ccc2ccccc12)c1cccs1,AC50 for growth inhibition (log10 M),-5.03
N#CC1(c2cccc(C(=O)Nc3cc(Oc4ccc5nc(NC(=O)C6CC6)sc5n4)ccc3F)c2Cl)CC1 [Takeda-6d],AC50 for growth inhibition (log10 M),-5.73
c1cncc(CN2CCC(n3ncc4c(N5CCOCC5)nc(-c5ccc6[nH]ccc6c5)nc43)CC2)c1 [WAY-600],AC50 for growth inhibition (log10 M),-4.63
O=C(NOCC(O)CO)c1cc(Br)c(F)c(F)c1Nc1ccc(I)cc1F (stereo not given),AC50 for growth inhibition (log10 M),-5.88
CNC(=O)c1ccccc1Sc1ccc2c(/C=C/c3ccccn3)n[nH]c2c1 [Axitinib],AC50 for growth inhibition (log10 M),-4.68
N[C@@H](Cc1c[nH]c2ccc(O)cc12)C(=O)O [5-Hydroxytryptophan],AC50 for growth inhibition (log10 M),-4.68
CC(C)[C@H](C(=O)Nc1ccc(C(=O)NO)cc1)c1ccccc1 [AR-42],AC50 for growth inhibition (log10 M),-6.18
N=C(N)NC(=N)N1CCOCC1 [Moroxydine],AC50 for growth inhibition (log10 M),-4.78
OC1=CC2=C(C=C1)C(=O)\C(=C(O2)\C3=CC(=C(O)C=C3)O)O [Fisetin],AC50 for growth inhibition (log10 M),-4.63
CCCCCCCN(CC)CCCC(O)c1ccc(NS(C)(=O)=O)cc1.CCCCCCCN(CC)CCCC(O)c1ccc(NS(C)(=O)=O)cc1.O=C(O)/C=C/C(=O)O (stereo not given) [Ibutilide fumarate],AC50 for growth inhibition (log10 M),-4.68
CCC[C@@H](NC(=O)[C@@H]1[C@H]2CCC[C@H]2CN1C(=O)[C@@H](NC(=O)[C@@H](NC(=O)c1cnccn1)C1CCCCC1)C(C)(C)C)C(=O)C(=O)NC1CC1 [Telaprevir],AC50 for growth inhibition (log10 M),-4.78
CC1=NN(c2ccc(C)c(C)c2)C(=O)/C1=N/Nc1cccc(-c2cccc(C(=O)O)c2)c1O [Eltrombopag olamine],AC50 for growth inhibition (log10 M),-4.83
CN1CCN(Cc2ccc(NC(=O)Nc3ccc(Oc4cc(NC(=O)C5CC5)ncn4)cc3)cc2C(F)(F)F)CC1 [WS3],AC50 for growth inhibition (log10 M),-5.93
COc1ccc(CC2NCCc3cc(OC)c(OC)cc32)cc1OC (stereo not given) [Tetrahydropapaverine],AC50 for growth inhibition (log10 M),-4.78
Nc1nc(N)c2nc(CNc3ccc(C(=O)NC(CCC(=O)O)C(=O)O)cc3)cnc2n1 (stereo not given) [Aminopterin],AC50 for growth inhibition (log10 M),-7.63
C[C@H](NCc1ccc2c(c1)nc(NC(=O)c1ccc(-c3cn[nH]c3)s1)n2CCc1ccccc1)C(C)(C)C,AC50 for growth inhibition (log10 M),-6.03
CC(=O)[C@H]1CC[C@H]2[C@@H]3CCC4=CC(=O)CC[C@]4(C)[C@H]3CC[C@]12C [Progesterone],AC50 for growth inhibition (log10 M),-4.78
NC(=O)C1CCCc2c1[nH]c1ccc(Cl)cc21 (stereo not given) [EX-527],AC50 for growth inhibition (log10 M),-4.78
CC[C@]1(O)C[C@@H]2CN(CCc3c([nH]c4ccccc34)[C@@](C(=O)OC)(c3cc4c(cc3OC)N(C)[C@H]3[C@@](O)(C(N)=O)[C@H](O)[C@]5(CC)C=CCN6CC[C@]43[C@@H]65)C2)C1 [Vindesine sulfate],AC50 for growth inhibition (log10 M),-8.68
N#C[C@@H]1C[C@@H]2C[C@@H]2N1C(=O)[C@@H](N)C12CC3CC(CC(O)(C3)C1)C2 [Saxagliptin],AC50 for growth inhibition (log10 M),-4.98
OCc1ccc(-c2ccc(-c3ccc(CO)s3)o2)s1 [RITA],AC50 for growth inhibition (log10 M),-4.93
O=C(NOC[C@H](O)CO)c1ccc(F)c(F)c1Nc1ccc(I)cc1F,AC50 for growth inhibition (log10 M),-6.33
N#CC(c1ccnc(NCCc2cccnc2)n1)c1nc2ccccc2s1 (stereo not given) [JNK Inhibitor V],AC50 for growth inhibition (log10 M),-4.73
Clc1ccc(CCC(Cn2ccnc2)Sc2c(Cl)cccc2Cl)cc1 (stereo not given) [Butoconazole nitrate],AC50 for growth inhibition (log10 M),-4.68
O=C(O)c1ccc(-n2nc(-c3ccccc3O)nc2-c2ccccc2O)cc1 [Deferasirox],AC50 for growth inhibition (log10 M),-4.93
CC[C@]1(O)C[C@H]2CN(CCC3=C([NH]C4=C3C=CC=C4)[C@@](C2)(C(=O)OC)C5=CC6=C(C=C5OC)N(C=O)[C@H]7[C@](O)([C@H](OC(C)=O)[C@]8(CC)\C=C/C[N@@]9CC[C@]67[C@H]89)C(=O)OC)C1 [Vincristine sulfate],AC50 for growth inhibition (log10 M),-8.48
CCCCC[C@H](O)/C=C/[C@H]1[C@H](O)CC(=O)[C@@H]1C/C=C\CCCC(=O)O [Prostaglandin E2],AC50 for growth inhibition (log10 M),-5.18
C[S+](=O)([O-])c1cccc(CNc2nc(Nc3ccc4c(c3)CCC(=O)N4)ncc2C(F)(F)F)c1,AC50 for growth inhibition (log10 M),-4.78
CN(C)C1=C(Br)C=C(C=C1)C\2NC3=C(\C4=C2C(=O)CC(C)(C)C4)C5=CC=CC=C5C=C3 (stereo not given) [GLS968],AC50 for growth inhibition (log10 M),-5.23
COC(=O)Nc1nc2cc(C(=O)c3ccccc3)ccc2[nH]1 [Mebendazole],AC50 for growth inhibition (log10 M),-5.48
Cc1ncc(-c2ccnc(Nc3ccc([S+](C)(=O)[O-])cc3)n2)n1C(C)C [AZD-5438],AC50 for growth inhibition (log10 M),-5.78
CN1C(=O)/C(=C(NC2=CC=C(I)C=C2F)\C3=C1\N=C/N(C[C@@H](O)CO)C3=O)F [TAK-733],AC50 for growth inhibition (log10 M),-6.48
O=c1[nH]c2ccccc2n1C1CCN(Cc2ccc(-c3nc4cc5nc[nH]c5cc4nc3-c3ccccc3)cc2)CC1 [AKT inhibitor VIII],AC50 for growth inhibition (log10 M),-4.83
CN1CCN(c2cccc(Nc3nc4c(-c5ccc([S+](C)(=O)[O-])cc5)cccn4n3)c2)CC1,AC50 for growth inhibition (log10 M),-4.78
CN(C)CCCC1(c2ccc(F)cc2)OCc2cc(C#N)ccc21 (stereo not given) [Citalopram hydrobromide],AC50 for growth inhibition (log10 M),-4.83
CC(C)(C)C1=NC2=C([NH]1)C3=CC=C(F)C=C3C4=C2\C=C/NC4=O [Merck 5],AC50 for growth inhibition (log10 M),-5.33
COc1cc([C@@H]2c3cc4c(cc3[C@H](O)[C@H]3COC(=O)[C@H]23)OCO4)cc(OC)c1OC [Picropodophyllin],AC50 for growth inhibition (log10 M),-8.43
CC(C)(C)OC(=O)Nc1ccc(-c2cc(C(=O)NCCCCCCC(=O)NO)no2)cc1 [ISOX],AC50 for growth inhibition (log10 M),-5.58
C/C(=C\C(=O)Nc1ccccc1C(=O)O)c1ccc2ccccc2c1 [BIBR 1532],AC50 for growth inhibition (log10 M),-4.78
O=C(Nc1cc(Cl)cc2c1[nH]c1cnccc12)c1cccnc1 [PS-1145],AC50 for growth inhibition (log10 M),-4.73
Cc1ccc(Nc2nccc(N(C)c3ccc4c(C)n(C)nc4c3)n2)cc1[S+](N)(=O)[O-] [Pazopanib],AC50 for growth inhibition (log10 M),-4.78
CNC(=O)c1ccc2c(c1)NC(=O)/C2=C(\Nc1cccc(CN(C)C)c1)c1ccccc1,AC50 for growth inhibition (log10 M),-4.93
COCC(=O)NC/C=C/c1ccc2ncnc(Nc3ccc(Oc4ccc(C)nc4)c(C)c3)c2c1,AC50 for growth inhibition (log10 M),-6.58
O=C(N[C@@H](c1ccccc1)[C@@H]1CCCCN1)c1cccc(C(F)(F)F)c1Cl,AC50 for growth inhibition (log10 M),-5.88
CC(C)CC(N(C)C)C1(c2ccc(Cl)cc2)CCC1 (stereo not given) [Sibutramine hydrochloride],AC50 for growth inhibition (log10 M),-4.73
Cc1ccc([S+](=O)([O-])Nc2nc3ccccc3nc2Nc2ccc3nsnc3c2)cc1 [XL-147],AC50 for growth inhibition (log10 M),-6.19
COc1cc(C)c(/C=C/C(C)=C/C=C/C(C)=C/C(=O)O)c(C)c1C [Acitretin],AC50 for growth inhibition (log10 M),-4.73
CNC(=O)c1cc(Oc2ccc(NC(=O)Nc3cc(C(C)(C)C)nn3-c3ccc4ncccc4c3)c(F)c2)ccn1 [DCC-2036],AC50 for growth inhibition (log10 M),-5.63
CC(C)n1c(/C=C/[C@H](O)C[C@H](O)CC(=O)[O-])c(-c2ccc(F)cc2)c2ccccc21 [Fluvastatin],AC50 for growth inhibition (log10 M),-5.38
O=C(Nc1ccccc1)Nc1ccc(-c2ccc(C(=O)[C@@H]3CCC[C@H]3C(=O)O)cc2)cc1,AC50 for growth inhibition (log10 M),-4.63
CC[C@@H]1C(=O)N(C)c2cnc(Nc3ccc(C(=O)NC4CCN(C)CC4)cc3OC)nc2N1C1CCCC1 [BI-2536],AC50 for growth inhibition (log10 M),-7.28
O=C1Cc2cc(CCN3CCN(c4nsc5ccccc45)CC3)c(Cl)cc2N1 [Ziprasidone hydrochloride],AC50 for growth inhibition (log10 M),-4.63
COC[C@H]1OC(=O)C2=COC3=C2[C@@]1(C)\C4=C(C5CCC(=O)[C@@]5(C)C[C@H]4OC(C)=O)/C3=O (stereo not given in full) [Wortmannin],AC50 for growth inhibition (log10 M),-4.83
Cc1cccc(-c2nn(C(=S)Nc3ccccc3)cc2-c2ccnc3ccccc23)n1 [A 83-01],AC50 for growth inhibition (log10 M),-4.73
CC(C)[C@H]1C(=O)N[C@H](CO)Cc2c[nH]c3cccc(c23)N1C [(-)-Indolactam V],AC50 for growth inhibition (log10 M),-6.43
Cc1c(C)n(Cc2ccc(-c3ccccc3C(=O)O)cc2)c2ccc(C(=O)N[C@@H](C)c3ccc([N+](=O)[O-])cc3)cc12 [SR1664],AC50 for growth inhibition (log10 M),-4.68
